Measured values published in patent US20080009418A1, “Selective Inhibitors” (Alchemia LTD., priority 2004, published 2008).

Legend:
Human δ-opioid (DOP) = target: T1, Human δ-opioid (DOP) (Homo sapiens, UniProt P41143); experiment: Radioligand binding, human δ-opioid (DOP) membranes, FlashPlate, [3H]-Bremazocine; conditions: compound at 10 μM, [3H]-Bremazocine
T1 construct: purchased Perkin Elmer Biosignal
How it was run: (§1)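 Cloned human receptor membranes were coated onto FlashPlate wells and incubated with radioligand and compound (added from a 0.5 mM DMSO daughter plate) for 1 hour at room temperature in the dark. Scintillation counting gave percent inhibition, with DMSO defining total and reference ligand defining non-specific binding.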

Human κ-Opioid (KOP) = target: T2, Human κ-Opioid (KOP) (Homo sapiens, UniProt P41145); experiment: Radioligand binding, human κ-opioid (KOP) membranes, filtration, [3H]-Diprenorphine; conditions: compound at 10 μM, [3H]-Diprenorphine
T2 construct: purchased Perkin Elmer Biosignal
How it was run: (§2)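 Percent inhibition of radioligand binding measured on recombinant human membranes: NK1 with [125I]-Substance P, KOP with [3H]-Diprenorphine. Incubation 1 h at room temperature, then harvest onto 0.3% PEI-soaked filters, cold Tris-HCl pH 7.4 washes and scintillation counting; non-specific binding from reference ligand wells.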

Human Melanocortin (MC3) = target: T3, Human Melanocortin (MC3) (Homo sapiens, UniProt P41968); experiment: Radioligand binding, human melanocortin MC3 membranes, FlashPlate, [125I]-NDP-αMSH; conditions: compound at 10 μM, [125I]-NDP-αMSH
T3 construct: purchased Perkin Elmer Biosignal
How it was run: as §1

Human Melanocortin (MC4) = target: T4, Human Melanocortin (MC4) (Homo sapiens, UniProt P32245); experiment: Radioligand binding, human melanocortin MC4 membranes, FlashPlate, [125I]-NDP-αMSH; conditions: compound at 10 μM, [125I]-NDP-αMSH
T4 construct: purchased Perkin Elmer Biosignal
How it was run: as §1

Human melanocortin (MC5) = target: T5, Human melanocortin (MC5) (Homo sapiens, UniProt P33032); experiment: Radioligand binding, human melanocortin MC5 membranes, FlashPlate, [125I]-NDP-αMSH; conditions: compound at 10 μM, [125I]-NDP-αMSH
T5 construct: purchased Perkin Elmer Biosignal
How it was run: as §1

[1] = target: T6, Human melanin-concentrating hormone (MCH1) (Homo sapiens, UniProt Q99705); experiment: Radioligand binding, human melanin-concentrating hormone MCH1 membranes, FlashPlate, [125I]-S36057; conditions: compound at 10 μM
T6 construct: purchased Perkin Elmer Biosignal
How it was run: as §1

Human μ-opioid (MOP) = target: T7, Human μ-opioid (MOP) (Homo sapiens, UniProt P35372); experiment: Radioligand binding, human μ-opioid (MOP) membranes, FlashPlate, [3H]-Naloxone; conditions: compound at 10 μM, [3H]-Naloxone
T7 construct: purchased Perkin Elmer Biosignal
How it was run: as §1

Human neurokinin (NK1) = target: T8, Human neurokinin (NK1) (Homo sapiens, UniProt P25103); experiment: Radioligand binding, human neurokinin NK1 membranes, filtration, [125I]-Substance P; conditions: compound at 10 μM, [125I]-Substance P
T8 construct: purchased Perkin Elmer Biosignal
How it was run: as §2

[2] = target: T9, Human neuropeptide Y (NPY-Y1) (Homo sapiens, UniProt P25929); experiment: Radioligand binding, human neuropeptide Y NPY-Y1 membranes, FlashPlate, [125I]-PYY; conditions: compound at 10 μM, [125I]-PYY
T9 construct: purchased Perkin Elmer Biosignal
T9 sequence (P25929 1-384): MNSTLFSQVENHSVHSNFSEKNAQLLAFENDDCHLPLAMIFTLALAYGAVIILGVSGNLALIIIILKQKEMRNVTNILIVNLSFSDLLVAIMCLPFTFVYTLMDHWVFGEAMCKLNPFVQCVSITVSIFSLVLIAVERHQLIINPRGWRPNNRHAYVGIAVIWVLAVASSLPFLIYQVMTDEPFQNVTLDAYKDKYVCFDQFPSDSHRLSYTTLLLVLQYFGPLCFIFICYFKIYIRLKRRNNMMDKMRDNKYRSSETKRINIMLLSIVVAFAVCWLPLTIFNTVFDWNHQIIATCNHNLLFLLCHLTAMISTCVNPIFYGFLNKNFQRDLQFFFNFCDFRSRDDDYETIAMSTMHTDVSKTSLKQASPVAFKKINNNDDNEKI
How it was run: as §1

Human opioid (ORL1) = target: T10, Human opioid (ORL1) (Homo sapiens, UniProt P41146); experiment: Radioligand binding, human opioid ORL1 membranes, FlashPlate, [125I]-Nociceptin; conditions: compound at 10 μM, [125I]-Nociceptin
T10 construct: purchased Perkin Elmer Biosignal
How it was run: as §1

Mouse urotensin (mUR2) = target: T11, Mouse urotensin (mUR2) (Mus musculus, UniProt Q8VIH9); experiment: Radioligand binding, mouse urotensin mUR2 membranes, FlashPlate, [125I]-Urotensin II; conditions: compound at 10 μM, [125I]-Urotensin II
T11 construct: purchased Perkin Elmer Biosignal
T11 sequence (Q8VIH9 1-385): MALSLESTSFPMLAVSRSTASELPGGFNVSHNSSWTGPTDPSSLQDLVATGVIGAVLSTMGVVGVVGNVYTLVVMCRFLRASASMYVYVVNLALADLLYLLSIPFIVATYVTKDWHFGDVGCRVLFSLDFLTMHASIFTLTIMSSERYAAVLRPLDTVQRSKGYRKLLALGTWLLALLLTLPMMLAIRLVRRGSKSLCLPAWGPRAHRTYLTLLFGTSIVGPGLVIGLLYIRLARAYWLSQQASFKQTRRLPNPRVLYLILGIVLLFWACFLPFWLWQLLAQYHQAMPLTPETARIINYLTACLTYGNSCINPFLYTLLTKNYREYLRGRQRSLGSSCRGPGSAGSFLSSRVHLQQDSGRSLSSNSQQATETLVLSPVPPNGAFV
How it was run: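 Cloned mouse urotensin (mUR2) receptor membranes from Perkin Elmer Biosignal were immobilized in FlashPlate microplates using a proprietary coating. Each well got 19.5 μl buffer, then 0.5 μl of DMSO, reference ligand, or compound. Adding 5 μl of [125I]-Urotensin II, diluted to 5× final concentration in binding buffer, started binding. Plates were sealed with TopSeal-A and incubated 1 hour at room temperature in the dark. Wells were counted for 30 seconds each on a TopCount after a 60-second delay, and percentage inhibition was calculated.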

T10 sequence (P41146 whole entry): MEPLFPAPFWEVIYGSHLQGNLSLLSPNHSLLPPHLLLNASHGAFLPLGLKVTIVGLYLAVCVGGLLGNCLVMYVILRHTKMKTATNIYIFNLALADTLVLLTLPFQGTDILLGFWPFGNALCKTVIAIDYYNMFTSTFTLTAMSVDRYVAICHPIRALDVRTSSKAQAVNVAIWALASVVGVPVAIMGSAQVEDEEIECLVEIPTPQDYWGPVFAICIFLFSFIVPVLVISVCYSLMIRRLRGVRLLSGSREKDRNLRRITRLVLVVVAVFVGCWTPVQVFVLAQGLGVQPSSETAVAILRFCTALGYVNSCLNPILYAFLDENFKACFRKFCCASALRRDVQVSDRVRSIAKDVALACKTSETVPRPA
T3 sequence (P41968 whole entry): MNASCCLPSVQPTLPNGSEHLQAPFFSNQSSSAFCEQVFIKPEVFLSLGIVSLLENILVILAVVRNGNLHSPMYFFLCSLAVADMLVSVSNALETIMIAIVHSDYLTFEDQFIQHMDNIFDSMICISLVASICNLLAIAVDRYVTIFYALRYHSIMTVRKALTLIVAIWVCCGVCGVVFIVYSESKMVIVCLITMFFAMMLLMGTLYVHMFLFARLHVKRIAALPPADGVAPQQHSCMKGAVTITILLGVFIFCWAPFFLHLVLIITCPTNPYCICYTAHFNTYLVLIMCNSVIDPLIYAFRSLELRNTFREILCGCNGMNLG
T4 sequence (P32245 whole entry): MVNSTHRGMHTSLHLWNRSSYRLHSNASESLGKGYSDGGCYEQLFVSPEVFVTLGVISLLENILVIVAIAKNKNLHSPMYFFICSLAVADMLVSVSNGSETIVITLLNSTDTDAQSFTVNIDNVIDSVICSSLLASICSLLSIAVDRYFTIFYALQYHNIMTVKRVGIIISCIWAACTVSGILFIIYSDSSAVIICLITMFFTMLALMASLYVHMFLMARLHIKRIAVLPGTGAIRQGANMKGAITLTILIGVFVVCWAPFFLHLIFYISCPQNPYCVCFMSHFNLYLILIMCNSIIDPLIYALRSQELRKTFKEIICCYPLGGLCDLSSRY
T5 sequence (P33032 whole entry): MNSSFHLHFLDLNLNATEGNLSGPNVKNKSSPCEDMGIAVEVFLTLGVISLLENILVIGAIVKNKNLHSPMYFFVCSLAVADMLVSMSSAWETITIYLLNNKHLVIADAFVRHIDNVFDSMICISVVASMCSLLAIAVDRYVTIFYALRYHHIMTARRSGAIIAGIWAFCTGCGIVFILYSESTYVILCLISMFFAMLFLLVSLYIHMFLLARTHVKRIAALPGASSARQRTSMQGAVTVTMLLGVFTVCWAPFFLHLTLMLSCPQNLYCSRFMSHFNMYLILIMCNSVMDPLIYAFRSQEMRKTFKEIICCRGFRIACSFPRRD
T1 sequence (P41143 whole entry): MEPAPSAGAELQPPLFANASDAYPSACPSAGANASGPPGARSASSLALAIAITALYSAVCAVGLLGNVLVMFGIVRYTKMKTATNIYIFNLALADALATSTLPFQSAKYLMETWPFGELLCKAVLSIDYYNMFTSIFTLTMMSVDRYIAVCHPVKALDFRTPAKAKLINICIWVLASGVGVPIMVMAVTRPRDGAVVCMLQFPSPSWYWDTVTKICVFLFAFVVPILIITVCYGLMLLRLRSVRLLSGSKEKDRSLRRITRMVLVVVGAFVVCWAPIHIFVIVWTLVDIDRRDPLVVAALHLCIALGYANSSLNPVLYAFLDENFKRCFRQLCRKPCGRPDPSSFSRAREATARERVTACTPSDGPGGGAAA
T7 sequence (P35372 whole entry): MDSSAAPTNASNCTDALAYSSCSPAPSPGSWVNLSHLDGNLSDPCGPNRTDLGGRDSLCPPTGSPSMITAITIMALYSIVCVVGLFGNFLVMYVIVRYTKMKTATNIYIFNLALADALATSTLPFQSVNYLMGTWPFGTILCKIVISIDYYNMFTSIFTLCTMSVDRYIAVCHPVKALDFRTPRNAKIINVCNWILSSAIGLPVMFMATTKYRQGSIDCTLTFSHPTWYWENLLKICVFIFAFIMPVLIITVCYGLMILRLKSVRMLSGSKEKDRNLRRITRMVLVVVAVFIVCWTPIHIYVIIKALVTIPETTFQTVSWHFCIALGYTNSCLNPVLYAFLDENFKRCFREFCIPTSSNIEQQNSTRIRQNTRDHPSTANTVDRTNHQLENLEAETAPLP
T2 sequence (P41145 whole entry): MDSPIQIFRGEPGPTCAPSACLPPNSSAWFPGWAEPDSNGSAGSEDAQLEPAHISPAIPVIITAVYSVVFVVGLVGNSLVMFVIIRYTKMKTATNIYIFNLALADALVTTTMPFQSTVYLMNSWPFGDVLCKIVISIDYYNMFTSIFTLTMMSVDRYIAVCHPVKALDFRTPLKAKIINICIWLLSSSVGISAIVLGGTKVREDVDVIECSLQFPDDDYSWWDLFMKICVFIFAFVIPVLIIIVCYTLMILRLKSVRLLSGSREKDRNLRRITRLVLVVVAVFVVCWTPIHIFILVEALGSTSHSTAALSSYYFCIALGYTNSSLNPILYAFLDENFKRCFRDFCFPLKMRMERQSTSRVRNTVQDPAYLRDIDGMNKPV
T8 sequence (P25103 whole entry): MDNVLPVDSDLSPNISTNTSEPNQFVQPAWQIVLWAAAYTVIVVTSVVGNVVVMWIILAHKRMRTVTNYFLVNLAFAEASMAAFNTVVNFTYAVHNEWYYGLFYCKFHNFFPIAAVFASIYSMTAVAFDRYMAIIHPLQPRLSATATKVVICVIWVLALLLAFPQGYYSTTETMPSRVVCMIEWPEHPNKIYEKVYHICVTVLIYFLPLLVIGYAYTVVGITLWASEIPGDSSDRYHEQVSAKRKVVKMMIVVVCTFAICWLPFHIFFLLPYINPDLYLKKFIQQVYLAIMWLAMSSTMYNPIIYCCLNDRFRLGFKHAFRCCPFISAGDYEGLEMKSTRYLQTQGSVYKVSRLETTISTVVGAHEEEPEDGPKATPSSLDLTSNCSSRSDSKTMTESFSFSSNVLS
T6 sequence (Q99705 whole entry): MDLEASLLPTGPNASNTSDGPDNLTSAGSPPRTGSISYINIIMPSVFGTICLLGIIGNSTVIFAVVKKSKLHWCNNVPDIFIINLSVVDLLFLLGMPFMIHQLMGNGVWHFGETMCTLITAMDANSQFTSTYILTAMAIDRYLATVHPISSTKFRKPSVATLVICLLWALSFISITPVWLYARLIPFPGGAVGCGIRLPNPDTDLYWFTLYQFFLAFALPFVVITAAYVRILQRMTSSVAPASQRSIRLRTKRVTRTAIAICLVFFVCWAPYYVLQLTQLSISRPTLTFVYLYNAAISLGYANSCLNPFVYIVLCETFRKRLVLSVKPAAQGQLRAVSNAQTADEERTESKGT

| SMILES | A1: inhibition of radioligand binding, human δ-opioid (DOP) (Human δ-opioid (DOP)) | A2: inhibition of radioligand binding, human κ-opioid (KOP) (Human κ-Opioid (KOP)) | A3: inhibition of radioligand binding, human melanocortin (MC3) (Human Melanocortin (MC3)) | A4: inhibition of radioligand binding, human melanocortin (MC4) (Human Melanocortin (MC4)) | A5: inhibition of radioligand binding, human melanocortin (MC5) (Human melanocortin (MC5)) | A6: inhibition of radioligand binding, human melanin-concentrating hormone (MCH1) ([1]; [125I]-S36057) | A7: inhibition of radioligand binding, human μ-opioid (MOP) (Human μ-opioid (MOP)) | A8: inhibition of radioligand binding, human neurokinin (NK1) (Human neurokinin (NK1)) | A9: inhibition of radioligand binding, human neuropeptide Y (NPY-Y1) [2] | A10: inhibition of radioligand binding, human opioid (ORL1) (Human opioid (ORL1)) | A11: inhibition of radioligand binding, mouse urotensin (mUR2) (Mouse urotensin (mUR2)) | other results |
| --- | --- | --- | --- | --- | --- | --- | --- | --- | --- | --- | --- | --- |
| CO[C@H]1[C@H](O)[C@@H](COCc2cccc(O)c2)OC(OCc2ccc(Cl)cc2)[C@@H]1NC(=O)CCCNC(=N)N (stereo partly shown) [compound 157] | – | – | – | – | – | – | – | – | – | – | – | A1 radioligand binding, percentage inhibition (Human δ-opioid (DOP)): − (“−” indicates less than 50% inhibition at 10 μM); A2 radioligand binding, percentage inhibition (Human κ-Opioid (KOP)): − (“−” indicates less than 50% inhibition at 10 μM); A3 radioligand binding, percentage inhibition (Human Melanocortin (MC3)): − (“−” indicates less than 50% inhibition at 10 μM); A4 radioligand binding, percentage inhibition (Human Melanocortin (MC4)): − (“−” indicates less than 50% inhibition at 10 μM); A5 radioligand binding, percentage inhibition (Human melanocortin (MC5)): + (“+” indicates greater than 50% inhibition at 10 μM); A6 radioligand binding, percentage inhibition ([1]; [125I]-S36057): + (“+” indicates greater than 50% inhibition at 10 μM); A7 radioligand binding, percentage inhibition (Human μ-opioid (MOP)): − (“−” indicates less than 50% inhibition at 10 μM); A8 radioligand binding, percentage inhibition (Human neurokinin (NK1)): + (“+” indicates greater than 50% inhibition at 10 μM); A9 radioligand binding, percentage inhibition [2]: − (“−” indicates less than 50% inhibition at 10 μM); A10 radioligand binding, percentage inhibition (Human opioid (ORL1)): − (“−” indicates less than 50% inhibition at 10 μM); A11 radioligand binding, percentage inhibition (Mouse urotensin (mUR2)): − (“−” indicates less than 50% inhibition at 10 μM) |
| CSC1O[C@H](COCc2ccc(Cl)cc2)[C@@H](O)[C@@H](OCc2ccc(-c3ccccc3)cc2)[C@H]1NC(=O)CCCNC(=N)N (stereo partly shown) [compound 292] | − (“−” indicates less than 50% inhibition at 10 μM) | − (“−” indicates less than 50% inhibition at 10 μM) | − (“−” indicates less than 50% inhibition at 10 μM) | − (“−” indicates less than 50% inhibition at 10 μM) | + (“+” indicates greater than 50% inhibition at 10 μM) | − (“−” indicates less than 50% inhibition at 10 μM) | − (“−” indicates less than 50% inhibition at 10 μM) | + (“+” indicates greater than 50% inhibition at 10 μM) | − (“−” indicates less than 50% inhibition at 10 μM) | − (“−” indicates less than 50% inhibition at 10 μM) | − (“−” indicates less than 50% inhibition at 10 μM) | – |
| CSC1OC(COCc2ccc(-c3ccccc3)cc2)C(O)C(OCc2ccc3ccccc3c2)C1NC(=O)CNC(=N)N (stereo not shown) [compound 312] | − (“−” indicates less than 50% inhibition at 10 μM) | − (“−” indicates less than 50% inhibition at 10 μM) | + (“+” indicates greater than 50% inhibition at 10 μM) | + (“+” indicates greater than 50% inhibition at 10 μM) | + (“+” indicates greater than 50% inhibition at 10 μM) | − (“−” indicates less than 50% inhibition at 10 μM) | − (“−” indicates less than 50% inhibition at 10 μM) | + (“+” indicates greater than 50% inhibition at 10 μM) | − (“−” indicates less than 50% inhibition at 10 μM) | − (“−” indicates less than 50% inhibition at 10 μM) | − (“−” indicates less than 50% inhibition at 10 μM) | – |
| CSC1OC(COCc2cccc(N)c2)C(O)C(OCc2ccc(Cl)cc2)C1NC(=O)c1ccccc1 (stereo not shown) [compound 332] | − (“−” indicates less than 50% inhibition at 10 μM) | − (“−” indicates less than 50% inhibition at 10 μM) | − (“−” indicates less than 50% inhibition at 10 μM) | − (“−” indicates less than 50% inhibition at 10 μM) | − (“−” indicates less than 50% inhibition at 10 μM) | − (“−” indicates less than 50% inhibition at 10 μM) | − (“−” indicates less than 50% inhibition at 10 μM) | + (“+” indicates greater than 50% inhibition at 10 μM) | − (“−” indicates less than 50% inhibition at 10 μM) | − (“−” indicates less than 50% inhibition at 10 μM) | − (“−” indicates less than 50% inhibition at 10 μM) | – |
| COCC1OC(OCc2ccc3ccccc3c2)C(NC(=O)CCCN)C(OCc2ccc(Cl)cc2)C1O (stereo not shown) [compound 239] | – | – | – | – | – | – | – | – | – | – | – | A1: inhibition of radioligand binding (Human δ-opioid (DOP); FlashPlate): − (“−” indicates less than 50% inhibition at 10 μM); A2: inhibition of radioligand binding (Human κ-Opioid (KOP); filtration): − (“−” indicates less than 50% inhibition at 10 μM); A3: inhibition of radioligand binding (Human Melanocortin (MC3); FlashPlate): − (“−” indicates less than 50% inhibition at 10 μM); A4: inhibition of radioligand binding (Human Melanocortin (MC4); FlashPlate): − (“−” indicates less than 50% inhibition at 10 μM); A5: inhibition of radioligand binding (Human melanocortin (MC5); FlashPlate): + (“+” indicates greater than 50% inhibition at 10 μM); A6: inhibition of radioligand binding ([1]; [125I]-S36057, FlashPlate): − (“−” indicates less than 50% inhibition at 10 μM); A7: inhibition of radioligand binding (Human μ-opioid (MOP); FlashPlate): − (“−” indicates less than 50% inhibition at 10 μM); A8: inhibition of radioligand binding (Human neurokinin (NK1); filtration): + (“+” indicates greater than 50% inhibition at 10 μM); A9: inhibition of radioligand binding ([2]; FlashPlate): − (“−” indicates less than 50% inhibition at 10 μM); A10: inhibition of radioligand binding (Human opioid (ORL1); FlashPlate): − (“−” indicates less than 50% inhibition at 10 μM); A11: inhibition of radioligand binding (Mouse urotensin (mUR2); FlashPlate): − (“−” indicates less than 50% inhibition at 10 μM) |
